Test results published in publication PMC8915582, “Validated DBS method for filgotinib quantitation in rat dried blood spots and its application to a pharmacokinetic study in rats” (ADMET & DMPK, 2020).
Where two headings read alike, the source gives them in different places. Values belong to the compound of their own block, whether it stands above or below them.

Assays:
[1] = Stability of primary stock solutions in DMSO; type: physicochemical; settings: primary stock in DMSO stored at -20 °C
Method: Two separate primary stock solutions of filgotinib were prepared at 1670 μg/mL in DMSO. Appropriate secondary and working stocks of filgotinib were prepared from primary stock by successive dilution of primary stock with methanol:water (80:20, v/v) to prepare the calibration curve (CC) and quality controls (QCs). The IS primary stock solution was made in DMSO at a concentration of 1000 μg/mL, which was diluted with methanol to 500 ng/mL and subsequently used as IS working stock solution. […] Working stock solutions were stored at 4 °C for 25 days.

[2] = tested on: rheumatoid arthritis; parameters: method as in PMID 26994322; settings: approved pan-JAK inhibitors, moderate to severe rheumatoid arthritis; cited from earlier work
[3] = Pharmacokinetic study in rats (oral and intravenous), filgotinib quantified from dried blood spots by LC-MS/MS; type: in vivo; settings: male, Sprague Dawley, whole blood (dried blood spots), rat, DBS blood
Method: Freshly drawn rat blood was used to prepare the DBS cards. With the help of a calibrated pipette, 25 μL of the respective spiked CC/QC blood or whole blood collected from the pharmacokinetic study (post administration of filgotinib by intravenous and oral routes) was sampled on DBS card. Spiked cards were allowed to dry at ambient room temperature for 3 h and stored appropriately in a sealed bag with desiccant in a desiccator.
Using a hole puncher (Harri-Micro-Punch®), 3 mm diameter disc was punched from the center of each DBS (FTA DMPK-C Card) card directly into micro-centrifuge tubes. To each micro-centrifuge tube, 200 μL of 0.2% formic acid enriched with 100 ng/mL of IS was added, thereafter the contents were vortex mixed for 5 min (Thermomixer®, Eppendorf) and sonicated (Elmasonic S300 H) for 15 min at ambient room temperature. After sonication, to the same micro-centrifuge, 1.0 mL of ethyl acetate was added and the mixtures were vortexed further for 3 min. The samples were centrifuged at 14,000 rpm for 3 min. Clear organic layer (800 μL) was pipetted out after centrifugation and dried under gentle stream of nitrogen (Turbovap®, Zymark®,Kopkinton, MA, USA) at 50 °C. The residue was reconstituted with 200 μL of 0.2% formic acid in acetonitrile and 150 μL clear supernatant was aliquoted into a HPLC vial and 5.0 μL was injected onto the column for LC-MS/MS analysis.
All the animal experiments were approved by Institutional Animal Ethical Committee (IAEC/JDC/2019/189R). Male Sprague Dawley rats (n=8) were procured from Vivo Biotech, Hyderabad, India. The animals were housed in Jubilant Biosys animal house facility in a temperature (22 ± 2 °C) and humidity (30-70%) controlled room (15 air changes/hour) with a 12:12 h light:dark cycles, had free access to rodent feed (Altromin Spezialfutter GmbH & Co. KG., Im Seelenkamp 20, D-32791, Lage, Germany) and water for one week before using for experimental purpose. Following ~12 h fast (during the fasting period animals had free access to water) animals were divided into two groups having four rats in each group. Group I animals (205-210) received filgotinib orally as a suspension formulation (prepared using Tween-80 and 0.5% methyl cellulose) at 10 mg/kg (strength: 1.0 mg/mL; dose volume: 10 mL/kg), whereas Group II animals (215-225 g) received filgotinib intravenously (5% DMSO, 5% Solutol:absolute alcohol (1:1, v/v) and 90% of normal saline; strength: 0.5 mg/ml; dose volume: 4 ml/kg) at 2.0 mg/kg dose. Post-dosing serial blood samples (50 μL) were collected through retro-orbital plexus into polypropylene tubes containing K2.EDTA solution as an anti-coagulant at 0.25, 0.5, 1, 2, 4, 8, 10, 12 and 24 h (for oral study) and 0.083, 0.25, 0.5, 1, 2, 4, 8 and 24 h (for intravenous study). Animals were allowed to access feed 2 h post-dosing.
Blood concentration-time data of filgotinib was analyzed by non-compartmental method and the relevant pharmacokinetic parameters namely AUC0-∞ (area under the blood concentration-time curve from time zero to infinite time), C0 (extrapolated blood concentration at time zero), Cmax (maximum blood concentration), Tmax (time to reach Cmax), Vd (volume of distribution), CL (clearance) and t½ (terminal half-life) were calculated using Phoenix WinNonlin software (version 8.1; Pharsight Corporation, Mountain View, CA). Absolute oral bioavailability (F) was calculated using this formula [Dose (i.v.) × AUC(0-∞)oral / Dose (oral) × AUC(0-∞)i.v.] × 100.

[4] = parameters: method as in Dixit et al. (2020) [10]; settings: rat, plasma, values in parentheses, ref Dixit et al. (2020) [10], cited from earlier work
[5] = tested on: collagen-induced arthritis model; parameters: method as in PMID 24006460; settings: post oral administration in rodents; cited from earlier work
[6] = tested on: rheumatoid arthritis patients; parameters: method as in PMID 29566740; settings: monotherapy at 100 or 200 mg once daily or with methotrexate; cited from earlier work
[7] = tested on: JAK1; settings: cited from earlier work
[8] = tested on: JAK2; settings: JAK1 over JAK2; cited from earlier work

SMILES: C[C@@H]1CCN(C(=O)CC#N)C[C@@H]1N(C)c1ncnc2[nH]ccc12 [Tofacitinib, tofacitinib]
- time primary stock solution found to be stable [1]: 50 days
- toxicities [2]: dose-related toxicities

SMILES: CCS(=O)(=O)N1CC(CC#N)(n2cc(-c3ncnc4[nH]ccc34)cn2)C1 [baricitinib]
- toxicities [2]: dose-related toxicities

- bioavailability ([3]; oral 10 mg/kg vs intravenous 2.0 mg/kg, read-out: F (absolute oral bioavailability)): 42.5%
SMILES: O=C(Nc1nc2cccc(-c3ccc(CN4CCS(=O)(=O)CC4)cc3)n2n1)C1CC1 [filgotinib]
- Vd ([4]; intravenous, 2.0 mg/kg): 5.41 ± 0.77 L/kg
- F (absolute oral bioavailability) ([4]; oral, 10 mg/kg): 36.3%
- disease progression in a collagen-induced arthritis model [5]: dose-dependent reduction of disease progression
- tolerability, efficacy and safety in Phase-3 clinical trials [6]: well tolerated, showed efficacy and was found to be safe
